Experimental findings from the supplement of paper PMC11208160 are described below.
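Further: IS621 bridge recombinase in Escherichia coli cells against a fixed T5 target plasmid.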

The data set in a line: recombinant UMI read abundance after kanamycin selection (control-corrected) (log10(CPM+1)); higher = more efficient recombination; extreme values may be limits of the assay; sequences stand for … in AGTGCAGAGAAAATCGGCCAGTTTTCTCTGCCTGCAGTCCGCATGCCGTGGGACCCCTTGGGTTCTAACCTGTTGCCTAGATTTATGCAGCGGACTGCCTTTCTCCCAAAGTGATAAACCGG…AGGTTGGTTTCACT; site = the 11-nt donor. In short, it runs like this: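 The measure is log10(CPM+1) for recombinant UMIs. These were PCR-amplified across the donor–target junction and sequenced after Escherichia coli carrying a donor and donor-binding-loop pair library and a target plasmid with T7-inducible IS621 bridge recombinase was plated on IPTG (0.07 mM) plus kanamycin or unselected. CPM were averaged over two replicates and scaled by control-derived factors.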
As for “CGGAATCCATGGACCGGTTTTCCCGGTAATCCGTATTTGTT (site CGGTGTCCTAA)”, the “recombinant UMI read abundance (log10)” value was determined as 0.0136. Turning to “CGGAATCCATGGACCGGTTTTCCCGGTAATCCGTATTTGTT (site CGTAAGCCTAA)”, the “recombinant UMI read abundance (log10)” value stood at 0.0106. Next, “CGGAATCCATGGACCGGTTTTCCCGGTAATCCGTATTTGTT (site CGTAATACTAA)”: 0.00407; “CGGAATCCATGGACCGGTTTTCCCGGTAATCCGTATTTGTT (site CGTAATCCTAA)”: 0.0103; “CGGAATCCATGGACCGGTTTTCCCGGTAATCCGTATTTGTT (site CGTAATCCTAT)”: 0. Regarding “CGGAATCCATGGACCGGTTTTCCCGGTAATCCGTATTTGTT (site CGTAATCCTGA)”, the “recombinant UMI read abundance (log10)” value turned out to be 0.

Regarding “CGGAATCCATGGACCGGTTTTCCCGGTAATCCGTATTTGTT (site CGTAGTCCTAA)”, the “recombinant UMI read abundance (log10)” value was 0.00941.

Consider “CGGAATCCATGGACCGGTTTTCCCGGTAATCCGTATTTGTT (site CGTTATCCTAA)”, for which the “recombinant UMI read abundance (log10)” value came to 0.00294.

“CGGAATCCATGGACCGGTTTTCCCGGTAATCCGTATTTGTT (site CTCAATCCTAA)”: the “recombinant UMI read abundance (log10)” value worked out at 0. For “CGGAATCCATGGACCGGTTTTCCCGGTAATCCGTATTTGTT (site CTGAACCCTAA)”, the “recombinant UMI read abundance (log10)” value amounted to 0.0207. For the sequence “CGGAATCCATGGACCGGTTTTCCCGGTAATCCGTATTTGTT (site CTGAATCCTAA)”, the “recombinant UMI read abundance (log10)” value came to 0.0031. On to “CGGAATCCATGGACCGGTTTTCCCGGTAATCCGTATTTGTT (site CTGAATCCTAC)”, for which the “recombinant UMI read abundance (log10)” value was 0.

For “CGGAATCCATGGACCGGTTTTCCCGGTAATCCGTATTTGTT (site CTGAATCCTCA)”, the “recombinant UMI read abundance (log10)” value is 0.0195. Next, “CGGAATCCATGGACCGGTTTTCCCGGTAATCCGTATTTGTT (site CTGAATGCTAA)”: 0.00589; “CGGAATCCATGGACCGGTTTTCCCGGTAATCCGTATTTGTT (site CTGACTCCTAA)”: 0.00378; “CGGAATCCATGGACCGGTTTTCCCGGTAATCCGTATTTGTT (site CTGCATCCTAA)”: 0.0146. Turning to “CGGAATCCATGGACCGGTTTTCCCGGTAATCCGTATTTGTT (site GAGAATCCTAA)”, the “recombinant UMI read abundance (log10)” value was 0.00637. Next, “CGGAATCCATGGACCGGTTTTCCCGGTAATCCGTATTTGTT (site GGGAAGCCTAA)”: 0.0234; “CGGAATCCATGGACCGGTTTTCCCGGTAATCCGTATTTGTT (site GGGAATACTAA)”: 0; “CGGAATCCATGGACCGGTTTTCCCGGTAATCCGTATTTGTT (site GGGAATCCTAA)”: 0.

Turning to “CGGAATCCATGGACCGGTTTTCCCGGTAATCCGTATTTGTT (site GGGAATCCTAT)”, the “recombinant UMI read abundance (log10)” value was determined as 0. On to “CGGAATCCATGGACCGGTTTTCCCGGTAATCCGTATTTGTT (site GGGAATCCTGA)”, for which the “recombinant UMI read abundance (log10)” value was 0.

On to “CGGAATCCATGGACCGGTTTTCCCGGTAATCCGTATTTGTT (site GGGAGTCCTAA)”, for which the “recombinant UMI read abundance (log10)” value was 0.00491. Next, “CGGAATCCATGGACCGGTTTTCCCGGTAATCCGTATTTGTT (site GGGTATCCTAA)”: 0; “CGGAATCCATGGACCGGTTTTCCCGGTAATCCGTATTTGTT (site GGTAATCCTAA)”: 0; “CGGAATCCATGGACCGGTTTTCCCGGTAATCCGTATTTGTT (site TGCAATCCTAA)”: 0.0105.

With “CGGAATCCATGGACCGGTTTTCCCGGTAATCCGTATTTGTT (site TGGAACCCTAA)”, the “recombinant UMI read abundance (log10)” value was found to be 0.0136. Next, “CGGAATCCATGGACCGGTTTTCCCGGTAATCCGTATTTGTT (site TGGAATCCTAA)”: 0; “CGGAATCCATGGACCGGTTTTCCCGGTAATCCGTATTTGTT (site TGGAATCCTAC)”: 0. Next, “CGGAATCCATGGACCGGTTTTCCCGGTAATCCGTATTTGTT (site TGGAATCCTCA)”: 0.00675; “CGGAATCCATGGACCGGTTTTCCCGGTAATCCGTATTTGTT (site TGGAATGCTAA)”: 0.00525. Next, “CGGAATCCATGGACCGGTTTTCCCGGTAATCCGTATTTGTT (site TGGACTCCTAA)”: 0.027; “CGGAATCCATGGACCGGTTTTCCCGGTAATCCGTATTTGTT (site TGGCATCCTAA)”: 0.00352; “CGGAATCCATGGACCGGTTTTCCCGGTAATCCGTATTTGTT (site TTGAATCCTAA)”: 0.00378. For “CGGAATGCATGGACCGGTTTTCCCGGTAATCCGTATTTGCA (site CGGAATGCTTG)”, the “recombinant UMI read abundance (log10)” value amounted to 2.28. Next, “CGGAATGCATGGACCGGTTTTCCCGGTAATCCGTATTTGTG (site CGGAATCCTAA)”: 0. Next, “CGGAATGCATGGACCGGTTTTCCCGGTAATCCGTATTTGTG (site CGGAATGCTCA)”: 2.58; “CGGACTCCATGGACCGGTTTTCCCGGTAATCCGTATTTGTT (site CGGAATCCTAA)”: 0.00938. Next, “CGGACTCCATGGACCGGTTTTCCCGGTAATCCGTATTTGTT (site CGGACTCCTAA)”: 1.58.

Consider “CGGACTCCATGGACCGGTTTTCCCGGTAATCCGTATTTGTT (site CGGAGTCCTAA)”, for which the “recombinant UMI read abundance (log10)” value came to 0.00177. Next, “CGGACTCCATGGACCGGTTTTCCCGGTAATCCGTATTTGTT (site CGGATTCCTAA)”: 0.00394; “CGGAGATCATGGACCGGTTTTCCCGGTAATCCGTATTTGGT (site CGGAGATCTAC)”: 2.19; “CGGAGCACATGGACCGGTTTTCCCGGTAATCCGTATTTGAA (site CGGAGCACTTT)”: 1.77. Next, “CGGAGTCCATGGACCGGTTTTCCCGGTAATCCGTATTTGTT (site CGGAATCCTAA)”: 0.767. Next, “CGGAGTCCATGGACCGGTTTTCCCGGTAATCCGTATTTGTT (site CGGACTCCTAA)”: 0.011; “CGGAGTCCATGGACCGGTTTTCCCGGTAATCCGTATTTGTT (site CGGAGTCCTAA)”: 0.684; “CGGAGTCCATGGACCGGTTTTCCCGGTAATCCGTATTTGTT (site CGGATTCCTAA)”: 0. For “CGGATACCATGGACCGGTTTTCCCGGTAATCCGTATTTGTT (site CGGAATCCTAA)”, the “recombinant UMI read abundance (log10)” value turned out to be 0.00671. With “CGGATACCATGGACCGGTTTTCCCGGTAATCCGTATTTGTT (site CGGATACCTAA)”, the “recombinant UMI read abundance (log10)” value worked out at 0. Next, “CGGATTGCATGGACCGGTTTTCCCGGTAATCCGTATTTGCT (site CGGATTGCTAG)”: 1.79; “CGGCAGACATGGACCGGTTTTCCCGGTAATCCGTATTTGGT (site CGGCAGACTAC)”: 1.9; “CGGCCCTCATGGACCGGTTTTCCCGGTAATCCGTATTTGCA (site CGGCCCTCTTG)”: 3.02.
